From US11766423B2 (THE JOHNS HOPKINS UNIVERSITY, priority 2018, dated 2023)
Several values for one entry are separate records, joined by “and”; a condition that tells them apart may be missing. Equal values may be shown once. Entries after “also recorded” stand apart in the source; their conditions may differ.

Key:
[1] = system: nSMase2; settings: literature value; read-out: nSMase2 IC50 of prototype inhibitor; cited from earlier work
[2] = cited from earlier work
[3] = system: GFAP-GFP mice; test: Mouse model of brain inflammation, striatal IL-1β injection in GFAP-GFP mice
[4] = system: primary astrocytes; test: Inhibition of exosome (EV) release from primary astrocytes; format: cell-based, mouse; settings: 2 h; for effect on exosome (EV) release in vitro, in words: primary astrocytes, FBS withdrawal, 0.03-30 μM
[5] = system: Rat primary astrocytes; test: GFAP immunofluorescence, activation of serum-deprived astrocytes; format: cell-based; settings: 10 μM, 2 h; for GFAP levels without serum starvation: complete medium; for astrocyte activation (GFAP) in response to serum starvation: serum deprivation
Experimental: Media was collected after 2 h incubation and centrifuged at 2700 g for 15 minutes at 4° C. Supernatant was collected and the number of extracellular vesicles (EVs) was quantified using ZetaView Nanoparticle Tracker. The mean concentration of EVs/mL (±SEM) was calculated from 4 replicate experiments. […] GFP-containing exosomes released from astrocytes in the brain were quantified in plasma of mice 2.5 h following compound administration. Data are mean±SD, n=5-10 mice per condition. *, p<0.05 compared to saline control; ###, p<0.001 compared to IL1-β group; ***, p<0.001 compared to saline group. […] Astrocytes grown in complete medium were used as no treatment control. Cells were fixed and stained with anti-GFAP antibody (1:500, Sigma). Fluorescence intensity was measured using Image J. (FIG. 5D) Quantitation of fluorescence in (FIG. 5C). Bar graph represents background corrected mean fluorescence intensity measured from 100 astrocytes per condition. Error bars represent standard error of mean. One-way ANOVA followed by Tukey's posthoc test was performed;
Cells were fixed and immunofluorescence labeling for GFAP was performed.

[6] = Metabolic stability in mouse liver microsomes; format: in vitro ADME
Experimental: (§1) One potential liability when using chemical probes in vivo is lack of metabolic stability which structurally inactivates the compound before it can reach its molecular target. […] Percent of drug remaining over time was determined by liquid chromatography-tandem mass spectrometry analysis (LC/MS/MS).
(§2) Metabolic stability assay was conducted in mouse or human liver microsomes as has been described previously (Rais, et al., 2016) with minor modifications. Briefly, the reaction was carried out using potassium phosphate buffer (100 mM, pH 7.4), in the presence of an NADPH regenerating system (compound final concentration was 1 μM; 0.2 mg/mL microsomes). Compound disappearance was monitored over time using a liquid chromatography and tandem mass spectrometry (LC/MS/MS) method. Chromatographic analysis was performed using an Accela ultra high-performance system consisting of an analytical pump and an autosampler coupled with a TSQ Vantage mass spectrometer (Thermo Fisher Scientific Inc., Waltham, Mass.). […] The mobile phase consisted of 0.1% formic acid in acetonitrile and 0.1% formic acid in water with gradient elution.

[7] = biological target: alkaline phosphatase; test: Counter assay without nSMase2, phosphorylcholine as substrate; format: biochemical; settings: phosphorylcholine 2 μM, no nSMase2, no SM; read-out: IC50 alkaline phosphatase in counter screen
Experimental: Following assay validation, 365,000 compounds were screened from the Molecular Libraries Small Molecule Repository (MLSMR) and 2816 compounds were screened from the NCGC pharmaceutical collection (NPC) library for human nSMase2 inhibitors. Compounds were screened at 4 concentrations: 1.1 μM, 11 μM, 57 μM and 114 μM. Cambinol (full does response in each plate) was used as positive control. After eliminating promiscuous compounds, 1990 compounds that had maximal inhibitory responses >50% at the highest concentration tested and robust curve response classes (CRC) (Inglese, et al., 2006) were selected for re-testing in the same human nSMase2 activity assay and counter screen. […] There were a total of 220 compounds for follow-up confirmation (FIG. 2A).

[8] = biological target: T1, acid sphingomyelinase (Homo sapiens, UniProt P17405); test: Acid sphingomyelinase selectivity study, standard protocol; format: biochemical; settings: results not shown
T1 sequence (P17405 47-631): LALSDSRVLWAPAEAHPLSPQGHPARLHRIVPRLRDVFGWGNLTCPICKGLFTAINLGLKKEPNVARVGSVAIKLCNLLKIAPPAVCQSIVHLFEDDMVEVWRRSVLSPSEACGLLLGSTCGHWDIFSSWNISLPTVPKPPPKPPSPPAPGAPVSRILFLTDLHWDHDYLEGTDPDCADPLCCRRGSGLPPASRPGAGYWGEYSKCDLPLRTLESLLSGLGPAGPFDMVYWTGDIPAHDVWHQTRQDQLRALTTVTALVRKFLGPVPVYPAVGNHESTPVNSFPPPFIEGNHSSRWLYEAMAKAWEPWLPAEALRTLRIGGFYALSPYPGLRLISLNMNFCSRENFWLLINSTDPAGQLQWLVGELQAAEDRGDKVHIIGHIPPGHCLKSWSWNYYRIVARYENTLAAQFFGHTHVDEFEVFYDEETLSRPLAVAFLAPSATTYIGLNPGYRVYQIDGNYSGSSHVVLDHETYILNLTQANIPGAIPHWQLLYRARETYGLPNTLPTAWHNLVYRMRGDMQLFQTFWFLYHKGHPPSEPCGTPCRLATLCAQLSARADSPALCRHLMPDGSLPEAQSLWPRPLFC

[9] = biological target: T2, human nSMase2 (Homo sapiens, UniProt Q9NY59); test: Fluorescence-based (Amplex Red) human nSMase2 activity assay; settings: rate vs SM concentration at several DPTIP concentrations
T2 sequence (Q9NY59 1-655): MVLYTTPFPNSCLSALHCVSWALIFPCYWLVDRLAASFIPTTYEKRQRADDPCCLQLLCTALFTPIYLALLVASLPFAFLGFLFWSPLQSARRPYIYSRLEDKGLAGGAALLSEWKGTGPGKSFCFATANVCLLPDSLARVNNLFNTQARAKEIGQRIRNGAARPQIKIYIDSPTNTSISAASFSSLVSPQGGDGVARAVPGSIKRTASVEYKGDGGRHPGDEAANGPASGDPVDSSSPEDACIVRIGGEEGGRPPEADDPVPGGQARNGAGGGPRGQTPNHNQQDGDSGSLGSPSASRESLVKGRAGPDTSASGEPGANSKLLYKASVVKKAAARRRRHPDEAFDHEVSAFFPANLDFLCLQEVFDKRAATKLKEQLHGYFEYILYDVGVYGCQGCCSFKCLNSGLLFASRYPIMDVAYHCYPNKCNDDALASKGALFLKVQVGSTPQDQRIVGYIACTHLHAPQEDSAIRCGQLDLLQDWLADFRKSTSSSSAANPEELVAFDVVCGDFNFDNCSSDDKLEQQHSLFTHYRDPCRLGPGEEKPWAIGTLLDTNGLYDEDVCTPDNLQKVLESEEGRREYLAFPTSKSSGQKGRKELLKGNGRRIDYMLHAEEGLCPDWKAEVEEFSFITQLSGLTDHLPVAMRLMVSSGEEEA

[10] = in 19 of 759 bioassays; cited from earlier work
[11] = Metabolic stability in human liver microsomes; format: in vitro ADME
Experimental: as §1, §2

[12] = system: GFAP-GFP mice; settings: co-injection with IL-1β, Dickens et al. 2017; cited from earlier work
[13] = 10 mg/kg IP 0.5 h before IL-1β, 2 h post IL-1β
[14] = 10 mg/kg IP, liver qRT-PCR 2 h post IL-1β

O=c1[nH]c(=S)[nH]c(-c2ccccc2)c1Cc1c(O)ccc2ccccc12 [Cambinol]
in vivo pharmacokinetic profile, in words [2]: poor in vivo pharmacokinetic profile

COc1cc(OC)cc(-c2nc(-c3cccs3)c(-c3ccccc3)[nH]2)c1 [DPT, 2-(3,5-dimethoxyphenyl)-5-phenyl-4-(thiophen-2-yl)-1H-imidazole]
effect on IL-1β-induced EV release in vivo, in words [3, 13]: no significant difference
effect on IL-1β-induced EV release in vivo, in words ([3]; 10 mg/kg IP 0.5 h before IL-1β, 2 h post IL-1β, listed as des-hydroxyl analog): no difference
effect on IL-1β-induced EV release in vivo, in words ([3]; 10 mg/kg IP 0.5 h before IL-1β, 2 h post IL-1β, listed as inactive analog): no statistically significant effect
effect on IL-1β-induced upregulation of liver cytokines [3, 14]: no effect
effects on production of TNF-α and IL-6 [3, 14]: marginal and not statistically significant
reduction in CCL2 production [3, 14]: not statistically significant
effect on exosome (EV) release in vitro, in words ([4]; listed as des hydroxyl inactive analog of DPTIP): did not inhibit
effect on exosome (EV) release in vitro, in words ([4]; listed as des-hydroxyl analog): no effect
effect on exosome (EV) release in vitro, in words ([4]; listed as inactive analog): no effect
GFAP levels without serum starvation [5]: did not change GFAP levels
astrocyte activation (GFAP) in response to serum starvation [5]: failed to prevent astrocyte activation

COc1cc(-c2nc(-c3cccs3)c(-c3ccccc3)[nH]2)cc(OC)c1O [DPTIP, 2,6-dimethoxy-4-(5-phenyl-4-thiophen-2-yl-1H-imidazol-2-yl)-phenol]
effect on IL-1β-induced EV release in vivo, in words [3, 13]: inhibitor of EV release; also recorded: inhibits exosome release
reduction of IL-1β-induced astrocyte-derived (GFP+) EVs in plasma [3, 13]: 51±13% and 70%
effect on IL-1β-induced upregulation of liver cytokines [3, 14]: inhibited
metabolic stability, in words ([6]; mouse liver microsomes with NADPH): metabolically stable
percent remaining ([6]; mouse liver microsomes, NADPH, 1 h, 1 μM compound): 100%
EC50 ([4]; Mus musculus, Astrocyte, primary astrocytes activated by FBS withdrawal, 2 h treatment): ~3 µM
effect on exosome (EV) release in vitro, in words [4]: inhibited exosome release from astrocytes in a dose dependent manner; also recorded: inhibitor of EV release; also recorded: inhibits exosome release
IC50 [7]: > 100 µM
IC50 [8]: > 100 µM
mode of inhibition with respect to sphingomyelin [9]: noncompetitive inhibition; also recorded: non-competitive
weak activity observed in NCATS bioassays [10]: 2 to 50 µM
GFAP levels without serum starvation [5]: did not change GFAP levels
astrocyte activation (GFAP) in response to serum starvation [5]: prevented astrocyte activation
metabolic stability, in words ([11]; human liver microsomes with NADPH): metabolically stable
percent remaining ([11]; human liver microsomes, NADPH, 1 h, 1 μM compound): 100%

COc1cc(O)c(C(=O)O)c(-c2cc(O)c(O)cc2C)c1 [altenusin]
neutrophil infiltration into brain parenchyma [12]: suppresses neutrophil infiltration
